In publication PMC11542830, “3-nitropyridine analogues as novel microtubule-targeting agents” (PLOS ONE, 2024):

Assays:
Type in all cases: cell-based
HT-29 cells = assay: Clonogenic assay on HT-29 cells; conditions: Homo sapiens, 144 h; HT-29, 6 days of incubation, colonies counted; read-out: IC50 (HT-29 cell proliferation, clonogenic assay)
Description: All experiments were performed under standard cell culture conditions at 37°C and 5% CO2. Colorectal adenocarcinoma HT-29 cells were seeded at 300 cells/well in triplicate in six well microtiter plates in RPMI-1640 medium supplemented with 10% fetal bovine serum and 25 μg/ml gentamicin (complete medium). Twenty-four hours later, the compounds were added in complete medium in final concentrations ranging from 10 μM to 0.1 nM. Cells were allowed to grow until they formed colonies for 6 days. The colonies were fixed with 100% methanol, stained with Trypan blue 0.4% in saline and the number of colonies was counted. The number of colonies in the treated wells was normalized to the number obtained in the untreated wells. Three biological independent experiments were performed for each compound.

PC3 cells = assay: 3-day MTS cell viability assay, PC3; conditions: Homo sapiens, PC-3, 72 hours, Fig 1C
Description: All cancer cell lines (HT-29: colorectal adenocarcinoma, HCT-116: colorectal carcinoma, A549: lung epithelial carcinoma, PC3: prostate adenocarcinoma, Jurkat: acute T-cell leukemia, BC-1: primary effusion lymphoma) and the normal human embryonal lung fibroblast cell line MRC-5 were acquired from the American Type Culture Collection (ATCC). All cell lines were cultured as recommended by the suppliers. Culture media were purchased from Gibco (Thermo Fisher Scientific) and supplemented with 10 to 20% fetal bovine serum (HyClone, GE Healthcare Life Sciences) and 20–25 μg/mL gentamicin (Gibco, Thermo Fisher Scientific). […]
(§1) Cell viability in cancer cell lines treated with compound was measured in a 3-day MTS cell proliferation assay using the CellTiter 96 AQueous Non-Radioactive Cell Proliferation Assay reagent (Promega) according to the manufacturer’s instructions. Absorbance was read at 490 nm on a SaFire II microplate reader (Tecan). CC50 values were calculated by fitting the obtained MTS cell viability data in GraphPad Prism using a 4-parameter log–based fit for inhibitors. Apoptosis induction and cell death upon compound treatment in PBMC was measured using the Alexa Fluor 488 Annexin V/Dead Cell Apoptosis Kit (Thermo Fisher Scientific), with readout on a FACSCanto II flow cytometer (BD Biosciences). […] The compounds were evaluated in duplo in two independent experiments.

PBMC = assay: Annexin V/PI flow cytometry viability, PBMC; conditions: Homo sapiens, 72 hours, normal cells, Fig 1C
Excerpt: Buffy coat preparations from healthy donors were obtained from the Blood Transfusion Center in Leuven, Belgium. Peripheral blood mononuclear cells (PBMC) were isolated by density gradient centrifugation over Lymphoprep™ (Axis Shield PoC AS; density 1.077 ± 0.001 g/mL) and cultured in cell culture medium (DMEM/F12, Gibco Thermo Fisher Scientific) containing 8% fetal bovine serum. Each donor consented to the use of his blood for research purposes.
as §1, with “Biosciences). For cell cycle analysis, Jurkat cells were seeded at 400,000 cells per well in 12-well tissue culture plates and treated with the test compounds at the indicated concentrations for 24 h.” for “Biosciences).”

MOLT-4 = assay: NCI60 5-dose screen, MOLT-4; conditions: Homo sapiens, leukemia, Fig 1D, read-out: Log10 GI50 (MOLT-4) (converted)
Description: (§2) The screening methodology used in the NCI60 Cell 5-Doses screen is described in detail at https://dtp.cancer.gov/discovery_development/nci-60/methodology.htm. Briefly, cells are seeded in 96 well plates at an appropriate density and incubated for 1 day. After 1 day, some of the plates are processed to determine a time zero density. To the remaining plates, compounds are added over a 5-log M concentration range (1 log dilutions from 10^-4M to 10^-8M). Plates are incubated for two additional days, then fixed and stained with sulforhodamine B. Growth inhibition is calculated relative to cells without drug treatment and the time zero control. The GI50 is the concentration of a compound that causes 50% growth inhibition, relative to the no drug control.

HOP-62 = assay: NCI60 5-dose screen, HOP-62; conditions: Homo sapiens, non-small cell lung cancer, Fig 1D, read-out: Log10 GI50 (HOP-62) (converted)
Description: as §2

NCI-H522 = assay: NCI60 5-dose screen, NCI-H522; conditions: Homo sapiens, non-small cell lung cancer, Fig 1D, read-out: Log10 GI50 (NCI-H522) (converted)
Description: as §2

HCT-116 = assay: NCI60 5-dose screen, HCT-116; conditions: Homo sapiens, colon cancer, Fig 1D, read-out: Log10 GI50 (HCT-116) (converted)
Description: as §2

SF-268 = assay: NCI60 5-dose screen, SF-268; conditions: Homo sapiens, CNS cancer, Fig 1D, read-out: Log10 GI50 (SF-268) (converted)
Description: as §2

U251 = assay: NCI60 5-dose screen, U251; conditions: Homo sapiens, U-251; CNS cancer; Fig 1D; read-out: Log10 GI50 (U251) (converted)
Description: as §2

LOX IMVI = assay: NCI60 5-dose screen, LOX IMVI; conditions: Homo sapiens, melanoma, Fig 1D, read-out: Log10 GI50 (LOX IMVI) (converted)
Description: as §2

MDA-MB-435 = assay: NCI60 5-dose screen, MDA-MB-435; conditions: Homo sapiens, melanoma, Fig 1D, read-out: Log10 GI50 (MDA-MB-435) (converted)
Description: as §2

SK-MEL-5 = assay: NCI60 5-dose screen, SK-MEL-5; conditions: Homo sapiens, melanoma, Fig 1D, read-out: Log10 GI50 (SK-MEL-5) (converted)
Description: as §2

UACC-62 = assay: NCI60 5-dose screen, UACC-62; conditions: Homo sapiens, melanoma, Fig 1D, read-out: Log10 GI50 (UACC-62) (converted)
Description: as §2

IGROV1 = assay: NCI60 5-dose screen, IGROV1; conditions: Homo sapiens, IGROV-1; ovarian cancer; Fig 1D; read-out: Log10 GI50 (IGROV1) (converted)
Description: as §2

SN12C = assay: NCI60 5-dose screen, SN12C; conditions: Homo sapiens, renal cancer, Fig 1D, read-out: Log10 GI50 (SN12C) (converted)
Description: as §2

TK-10 = assay: NCI60 5-dose screen, TK-10; conditions: Homo sapiens, renal cancer, Fig 1D, read-out: Log10 GI50 (TK-10) (converted)
Description: as §2

`Cc1cc(C)cc(Nc2ccc([N+](=O)[O-])c(NCCN3CCOCC3)n2)c1` [Compound 4AZA2891, 6-(3,5-dimethylanilino)-2-(2-morpholinoethylamino)-3-nitropyridine] showed an IC50 (HT-29 cells) of 0.0054 µM, an IC50 (PC3 cells) of 0.0119 µM and an IC50 (PBMC) of 76.7 µM. The GI50 (MOLT-4) was 0.0562 µM, the GI50 (HOP-62) was 0.0302 µM and the GI50 (NCI-H522) was less than 0.01 µM. For the same compound, the GI50 (HCT-116) was 0.0148 µM, the GI50 (SF-268) was 0.135 µM and the GI50 (U251) was 0.0309 µM. For the same compound, the GI50 (LOX IMVI) was 0.0115 µM, the GI50 (MDA-MB-435) was less than 0.01 µM and the GI50 (SK-MEL-5) was less than 0.01 µM. For the same compound, the GI50 (UACC-62) was less than 0.01 µM, the GI50 (IGROV1) was 0.049 µM and the GI50 (SN12C) was 0.0708 µM. It also gave a GI50 (TK-10) of 12.9 µM.

In the case of `Cc1ccnc(Nc2ccc([N+](=O)[O-])c(NCCN3CCOCC3)n2)c1` [Compound 4AZA2996, N^6-(4-methylpyridin-2-yl)-N^2-(2-morpholinoethyl)-3-nitropyridine-2,6-diamine], the IC50 (HT-29 cells) is reported as 0.004 µM, the IC50 (PC3 cells) is reported as 0.0095 µM and the IC50 (PBMC) is reported as 14.1 µM. It also gave a GI50 (MOLT-4) of 0.0355 µM, a GI50 (HOP-62) of less than 0.01 µM and a GI50 (NCI-H522) of less than 0.01 µM. The GI50 (HCT-116) was less than 0.01 µM, the GI50 (SF-268) was 0.0589 µM and the GI50 (U251) was less than 0.01 µM. It also gave a GI50 (LOX IMVI) of less than 0.01 µM, a GI50 (MDA-MB-435) of less than 0.01 µM and a GI50 (SK-MEL-5) of less than 0.01 µM. The GI50 (UACC-62) was less than 0.01 µM, the GI50 (IGROV1) was 0.0575 µM and the GI50 (SN12C) was 0.0479 µM. The GI50 (TK-10) was 18.6 µM.
